Measured values reported in ChEMBL document CHEMBL1909046, “DrugMatrix in vitro pharmacology data”.

How the values were obtained:
[1] = DRUGMATRIX: Glutamate, AMPA radioligand binding (ligand: [3H] AMPA); assay type: cell membranes, Rattus norvegicus, Wistar, Cerebral cortex, Membrane; settings: Not Active = under 50% inhibition at 10 µM
[2] = molecular target: T1, Alpha-1D adrenergic receptor (Homo sapiens, UniProt P25100); assay type: cell membranes, HEK293, Membrane; settings: hek293; note: in other assays of this panel Not Active means under 50% inhibition at 10 µM
T1 sequence (P25100 whole entry): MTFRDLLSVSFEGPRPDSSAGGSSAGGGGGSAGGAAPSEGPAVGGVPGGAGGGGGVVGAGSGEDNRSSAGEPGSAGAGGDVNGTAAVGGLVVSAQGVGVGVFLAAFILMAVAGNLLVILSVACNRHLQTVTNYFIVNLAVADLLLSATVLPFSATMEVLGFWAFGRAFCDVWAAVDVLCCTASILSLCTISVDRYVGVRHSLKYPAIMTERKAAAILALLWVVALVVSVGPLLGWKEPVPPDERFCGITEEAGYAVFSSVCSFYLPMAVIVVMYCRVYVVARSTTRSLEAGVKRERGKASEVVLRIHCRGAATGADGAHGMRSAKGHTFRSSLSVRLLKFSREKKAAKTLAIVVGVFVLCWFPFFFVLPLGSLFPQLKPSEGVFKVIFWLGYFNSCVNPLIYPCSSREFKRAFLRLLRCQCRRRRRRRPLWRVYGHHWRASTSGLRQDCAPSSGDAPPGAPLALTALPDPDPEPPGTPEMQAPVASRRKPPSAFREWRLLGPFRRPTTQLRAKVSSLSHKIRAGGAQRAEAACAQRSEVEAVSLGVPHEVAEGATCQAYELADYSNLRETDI

Calcitonin receptor = molecular target: T2, Calcitonin receptor (Homo sapiens, UniProt P30988); assay type: cell membranes, Membrane; settings: t47d; note: in other assays of this panel Not Active means under 50% inhibition at 10 µM
T2 sequence (P30988 whole entry): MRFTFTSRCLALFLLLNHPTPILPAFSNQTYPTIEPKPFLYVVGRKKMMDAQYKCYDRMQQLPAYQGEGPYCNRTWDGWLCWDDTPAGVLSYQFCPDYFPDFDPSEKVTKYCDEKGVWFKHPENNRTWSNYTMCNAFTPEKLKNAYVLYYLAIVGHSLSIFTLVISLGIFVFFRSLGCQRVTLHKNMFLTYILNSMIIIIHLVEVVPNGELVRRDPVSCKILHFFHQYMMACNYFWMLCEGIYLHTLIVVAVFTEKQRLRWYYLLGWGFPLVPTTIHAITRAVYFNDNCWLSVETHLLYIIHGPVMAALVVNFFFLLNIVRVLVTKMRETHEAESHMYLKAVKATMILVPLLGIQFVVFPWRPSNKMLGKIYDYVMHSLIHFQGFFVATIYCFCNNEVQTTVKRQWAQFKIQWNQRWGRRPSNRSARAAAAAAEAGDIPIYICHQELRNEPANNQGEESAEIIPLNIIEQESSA

Substance-P receptor = Substance-P receptor (Homo sapiens, UniProt P25103); assay type: cell membranes, CHO, Membrane; settings: cho; note: in other assays of this panel Not Active means under 50% inhibition at 10 µM
Substance-P receptor, sequence (P25103 whole entry): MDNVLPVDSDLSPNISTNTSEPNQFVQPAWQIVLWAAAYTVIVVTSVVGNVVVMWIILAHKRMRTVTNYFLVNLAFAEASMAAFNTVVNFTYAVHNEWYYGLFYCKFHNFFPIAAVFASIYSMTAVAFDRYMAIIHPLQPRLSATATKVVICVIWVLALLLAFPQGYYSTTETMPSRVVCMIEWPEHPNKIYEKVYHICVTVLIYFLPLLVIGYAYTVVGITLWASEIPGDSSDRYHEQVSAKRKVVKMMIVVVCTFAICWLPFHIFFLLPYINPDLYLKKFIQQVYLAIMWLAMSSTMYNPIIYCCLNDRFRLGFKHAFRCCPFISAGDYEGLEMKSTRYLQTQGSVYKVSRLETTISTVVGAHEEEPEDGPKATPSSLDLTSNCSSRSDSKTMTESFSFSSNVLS

[3] = molecular target: Sodium-dependent dopamine transporter (Homo sapiens, UniProt Q01959); test: DRUGMATRIX: Dopamine Transporter radioligand binding (ligand: [125I] RTI-55); assay type: cell membranes, CHO-K1, Membrane; settings: cho-k1; Not Active = under 50% inhibition at 10 µM
Sodium-dependent dopamine transporter, sequence (Q01959 whole entry): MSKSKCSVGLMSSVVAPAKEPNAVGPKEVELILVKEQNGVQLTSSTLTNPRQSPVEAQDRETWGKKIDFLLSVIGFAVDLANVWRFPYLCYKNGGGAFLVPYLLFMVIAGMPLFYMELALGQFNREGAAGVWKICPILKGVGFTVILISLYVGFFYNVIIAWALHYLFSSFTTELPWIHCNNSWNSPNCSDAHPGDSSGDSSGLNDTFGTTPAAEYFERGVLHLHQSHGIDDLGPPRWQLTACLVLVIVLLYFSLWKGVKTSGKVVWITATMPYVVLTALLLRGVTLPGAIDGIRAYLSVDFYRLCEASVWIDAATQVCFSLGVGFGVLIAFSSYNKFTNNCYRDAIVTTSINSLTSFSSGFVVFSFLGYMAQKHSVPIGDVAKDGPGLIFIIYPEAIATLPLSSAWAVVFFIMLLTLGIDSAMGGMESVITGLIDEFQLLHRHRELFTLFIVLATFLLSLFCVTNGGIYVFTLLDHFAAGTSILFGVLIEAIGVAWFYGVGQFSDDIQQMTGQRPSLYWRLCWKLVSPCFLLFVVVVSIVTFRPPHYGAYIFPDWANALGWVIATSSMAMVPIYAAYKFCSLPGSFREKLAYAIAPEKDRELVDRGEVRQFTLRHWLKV

[4] = molecular target: T3, Receptor-type tyrosine-protein phosphatase C (Homo sapiens, UniProt P08575); parameters: species or system Escherichia coli;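 note: inhibition of CD45 enzyme activity measured using DiFMUP as substrate; in other assays of this panel Not Active means under 50% inhibition at 10 µM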
T3 sequence (P08575 whole entry): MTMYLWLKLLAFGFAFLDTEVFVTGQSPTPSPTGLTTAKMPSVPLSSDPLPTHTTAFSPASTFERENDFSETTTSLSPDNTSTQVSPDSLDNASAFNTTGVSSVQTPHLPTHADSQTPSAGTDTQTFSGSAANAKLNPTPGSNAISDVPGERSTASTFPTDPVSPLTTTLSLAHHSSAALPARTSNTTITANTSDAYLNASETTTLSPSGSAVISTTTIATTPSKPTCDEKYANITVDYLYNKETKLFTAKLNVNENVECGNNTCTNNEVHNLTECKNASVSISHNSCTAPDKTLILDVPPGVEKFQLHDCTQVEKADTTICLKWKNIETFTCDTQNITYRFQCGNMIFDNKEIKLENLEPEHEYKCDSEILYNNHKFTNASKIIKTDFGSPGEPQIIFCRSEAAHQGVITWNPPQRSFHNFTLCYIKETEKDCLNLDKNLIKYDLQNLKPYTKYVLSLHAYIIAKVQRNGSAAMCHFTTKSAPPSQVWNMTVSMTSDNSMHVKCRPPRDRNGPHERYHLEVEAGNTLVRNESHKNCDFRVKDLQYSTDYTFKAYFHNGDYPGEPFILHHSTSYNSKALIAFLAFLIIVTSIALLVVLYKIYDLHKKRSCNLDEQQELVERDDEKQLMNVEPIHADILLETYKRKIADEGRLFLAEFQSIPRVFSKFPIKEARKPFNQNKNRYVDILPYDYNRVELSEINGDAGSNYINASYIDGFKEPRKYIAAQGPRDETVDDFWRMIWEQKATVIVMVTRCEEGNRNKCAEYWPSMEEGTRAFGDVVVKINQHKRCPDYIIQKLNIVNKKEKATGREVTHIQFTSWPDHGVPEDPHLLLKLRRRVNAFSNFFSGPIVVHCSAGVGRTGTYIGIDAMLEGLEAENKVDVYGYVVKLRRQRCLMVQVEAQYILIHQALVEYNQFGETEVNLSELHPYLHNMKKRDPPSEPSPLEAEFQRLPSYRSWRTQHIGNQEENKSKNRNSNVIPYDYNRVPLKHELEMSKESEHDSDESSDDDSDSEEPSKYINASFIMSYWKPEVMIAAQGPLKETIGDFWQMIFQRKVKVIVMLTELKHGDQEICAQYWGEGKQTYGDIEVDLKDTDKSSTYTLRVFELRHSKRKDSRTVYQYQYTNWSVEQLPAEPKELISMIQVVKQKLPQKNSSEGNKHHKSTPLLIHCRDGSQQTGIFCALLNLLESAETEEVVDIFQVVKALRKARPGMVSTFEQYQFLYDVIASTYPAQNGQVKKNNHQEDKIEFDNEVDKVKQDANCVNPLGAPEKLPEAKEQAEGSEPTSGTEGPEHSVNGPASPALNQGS

O=C1c2c(O)ccc(O)c2C(=O)c2c(NCCNCCO)ccc(NCCNCCO)c21 [MITOXANTRONE]
Not Active: IC50 [1] | Ki [1] | IC50 [2] | IC50 (Calcitonin receptor) | IC50 (Substance-P receptor) | IC50 [3] | IC50 [4]

COc1c(C)c2c(c(O)c1C/C=C(\C)CCC(=O)OCCN1CCOCC1)C(=O)OC2 [MYCOPHENOLATE MOFETIL]
Not Active: IC50 [1] | Ki [1] | IC50 [2] | IC50 (Calcitonin receptor) | IC50 (Substance-P receptor) | IC50 [3] | IC50 [4]

COC(=O)C1=C(C)NC(C)=C(C(=O)OC)C1c1ccccc1[N+](=O)[O-] [NIFEDIPINE]
Not Active: IC50 [1] | Ki [1] | IC50 [2] | IC50 (Calcitonin receptor) | IC50 (Substance-P receptor) | IC50 [3] | IC50 [4]

NNc1ccccc1 [PHENYLHYDRAZINE]
Not Active: IC50 [1] | Ki [1] | IC50 [2] | IC50 (Calcitonin receptor) | IC50 (Substance-P receptor) | IC50 [3] | IC50 [4]

CC(=O)[C@H]1CC[C@H]2[C@@H]3CCC4=CC(=O)CC[C@]4(C)[C@H]3CC[C@]12C [PROGESTERONE]
Not Active: IC50 [1] | Ki [1] | IC50 [2] | IC50 (Calcitonin receptor) | IC50 (Substance-P receptor) | IC50 [3] | IC50 [4]

NC(=O)c1ncn([C@@H]2O[C@H](CO)[C@@H](O)[C@H]2O)n1 [RIBAVIRIN]
Not Active: IC50 [1] | Ki [1] | IC50 [2] | IC50 (Calcitonin receptor) | IC50 (Substance-P receptor) | IC50 [3] | IC50 [4]

O=[N+]([O-])c1cc([As](=O)(O)O)ccc1O [ROXARSONE]
Not Active: IC50 [1] | Ki [1] | IC50 [2] | Ki [2] | IC50 (Calcitonin receptor) | Ki (Calcitonin receptor) | IC50 (Substance-P receptor) | Ki (Substance-P receptor) | IC50 [3] | Ki [3] | IC50 [4] | Ki [4]

CC[C@H]1OC(=O)[C@H](C)[C@@H](O[C@H]2C[C@@](C)(OC)[C@@H](O)[C@H](C)O2)[C@H](C)[C@@H](O[C@@H]2O[C@H](C)C[C@H](N(C)C)[C@H]2O)[C@](C)(O)C[C@@H](C)/C(=N\OCOCCOC)[C@H](C)[C@@H](O)[C@]1(C)O [ROXITHROMYCIN]
Not Active: IC50 [1] | Ki [1] | IC50 [2] | IC50 (Calcitonin receptor) | IC50 (Substance-P receptor) | IC50 [3] | IC50 [4]

NC(=O)c1ccccc1O [SALICYLAMIDE]
Not Active: IC50 [1] | Ki [1] | IC50 [2] | IC50 (Calcitonin receptor) | IC50 (Substance-P receptor) | IC50 [3] | IC50 [4]

Cc1ncc([N+](=O)[O-])n1CC(C)O (stereo unspecified) [SECNIDAZOLE]
Not Active: IC50 [1] | Ki [1] | IC50 [2] | IC50 (Calcitonin receptor) | IC50 (Substance-P receptor) | IC50 [3] | IC50 [4]

CN[C@@H]1[C@@H](O)[C@@H](O[C@@H]2[C@@H](O)[C@H](O[C@H]3OC(CN)=CC[C@H]3N)[C@@H](N)C[C@H]2N)OC[C@]1(C)O [SISOMICIN]
Not Active: IC50 [1] | Ki [1] | IC50 [2] | IC50 (Calcitonin receptor) | IC50 (Substance-P receptor) | IC50 [3] | IC50 [4]

CC(=O)S[C@@H]1CC2=CC(=O)CC[C@]2(C)[C@H]2CC[C@@]3(C)[C@@H](CC[C@@]34CCC(=O)O4)[C@H]12 [SPIRONOLACTONE]
Not Active: IC50 [1] | Ki [1] | IC50 [2] | IC50 (Calcitonin receptor) | IC50 (Substance-P receptor) | IC50 [3] | IC50 [4]

C[C@]12Cc3c[nH]nc3C[C@@H]1CC[C@@H]1[C@@H]2CC[C@@]2(C)[C@H]1CC[C@]2(C)O [STANOZOLOL]
Not Active: IC50 [1] | Ki [1] | IC50 [2] | IC50 (Calcitonin receptor) | IC50 (Substance-P receptor) | IC50 [3] | IC50 [4]
